Source: US20130065227A1, “METHODS OF INCREASING MACROPINOCYTOSIS IN CANCER CELLS” (priority 2010, published 2013)

Tests used:
Type in all cases: cell-based
[1] = test system: SK-N-DZ; assay: Cell response to AS1411; conditions: Cancer, neuroblastoma
From the text: (§1) It has recently been discovered that AS1411 can stimulate macropinocytosis (MP) in cancer cells and this finding was verified by several different methods and in multiple cancer cell lines (Table 1).

[2] = test system: MCF7; assay: Cell response to AS1411; conditions: Cancer, breast
From the text: as §1

[3] = test system: BEAS2B; assay: Cell response to AS1411; conditions: Non-cancer, lung epithelial
From the text: as §1

[4] = test system: RWPE1; assay: Cell response to AS1411; conditions: Non-cancer, prostate epithelial
From the text: as §1

[5] = test system: MDA-MB-231; assay: Cell response to AS1411; conditions: Cancer, breast
From the text: as §1

[6] = test system: CHO; assay: Cell response to AS1411; conditions: Non-cancer, hamster ovary
From the text: as §1

[7] = test system: RCC4; assay: Cell response to AS1411; conditions: Cancer, renal cell
From the text: as §1

[8] = test system: A549; assay: Cell response to AS1411; conditions: Cancer, non-small cell lung
From the text: as §1

[9] = test system: DU145; assay: Cell response to AS1411
From the text: as §1

[10] = test system: DU145; assay: Stimulation of macropinocytosis (dextran uptake)
Experimental: (Panel A) DU145 cells were treated with 10 μM tAS1411 or 10 μM tCRO or no oligonucleotide in complete DMEM medium at 37° C. for the time indicated. After treatment, cell medium was changed for fresh complete medium containing 0.2 mg/ml dextran-10K labeled with Alexa Fluor 488, and cells were incubated for 30 min at 37° C. After incubation, cells were harvested and analyzed by flow cytometry to determine dextran uptake. (Panel B) The same experiment was performed using Hs27 cells. (Panel C) DU145 cells were treated with 10 μM tAS1411 or 10 μM tCRO or no oligonucleotide in complete DMEM medium at 37° C. for 48 h. After treatment, cell medium was changed for fresh complete medium containing 0.2 mg/ml dextran-10K tagged with Alexa Fluor 488, and cells were incubated for 30 min at 37° C. Then, cells were washed with cold PBS, added PBS containing 5 μg/ml PI and incubated on ice for 5 min. After washing with cold PBS, cells were fixed and the distribution of macropinocytic marker was visualized by confocal microscopy. The nucleus was stained with DAPI (blue). Scale bars, 10 μm. All experiments have been repeated at least three times. Data are mean of three independent samples; bars, SE; *(p<0.05).
FIG. 6 are graphs showing that nucleolin regulates AS1411-induced stimulation of macropinocytosis. DU145 cells were untreated (no transfection) or transfected, without siRNA (mock), or with 30 nM of one of three different nucleolin siRNAs (NCL1, NCL2, NCL3) or a control siRNA (scramble). 48 h after transfection, cells were incubated with 10 μM tAS1411, 10 μM tCRO, or no oligonucleotide in complete DMEM medium at 37° C. for 24 h. (Panel A) After treatment, cell medium was changed for fresh complete medium containing 0.2 mg/ml dextran-10K labeled with Alexa Fluor 488 (green) and incubated for 30 min at 37° C. (Panel B) After treatment, some cells were washed, fresh complete medium containing 10 μM FL-AS1411 added and incubated for 2 h at 37° C. After incubation, cells were harvested and analyzed by flow cytometry. Mean fluorescence was normalized to “not transfected” control (Panel A) or to no pre-treatment control (Panel B). All experiments have been repeated at least three times. Data are the mean of three independent samples; bars, SE; *(p<0.05).
FIG. 11 is a graph showing a comparison between AS1411 and tAS1411 in the ability to stimulate macropinocytosis. DU145 cells were plated 18 hr before treatment with different concentrations (0, 5, 10, or 15 μM) of AS1411, tAS1411 or tCRO in complete DMEM medium at 37° C. for 48 h. After treatment, cell medium was changed for fresh complete medium containing 0.2 mg/ml dextran-10K labeled with Alexa Fluor 488, and cells were incubated for 30 min at 37° C. After incubation, cells were incubated on ice with […] PI in PBS, harvested, fixed and immediately analyzed by flow cytometry.
To analyze uptake of the oligodeoxynucleotides or dextran-10K (macropinocytic marker) by flow cytometry, 2×10^5 cells in fresh supplemented culture medium (2.5 ml) were plated into 6-well plates for 18 h. After complete adhesion, the cells were incubated with 5′-FAM tagged oligodeoxynucleotides or Alexa Fluor 488 tagged dextran-10K and incubated as indicated in the Description of the Drawings. Cells were washed once with ice-cold PBS, incubated with 1 μg/ml 7-amino-actinomycin D (7-AAD) for 5 min on ice or 1 μg/ml propidium iodide (PI), and washed twice with ice-cold PBS. Cells were then treated with 0.01% trypsin/0.5 mM EDTA (300 μl) for 3 min prior addition 3 ml supplemented culture medium. The cells were then centrifuged and resuspended in 0.5 ml of 1% paraformaldehyde for analysis by flow cytometry using a FACScalibur cytometer (BD Biosciences, Mountain View, Calif.).
AS1411 causes a change in cancer cell morphology that is characterized by vacuolization, irregular nuclei, and swollen cells (Xu et al., 2001, J. Biol. Chem., 276:43221-30). […]

5′-d(GGTGGTGGTGGTTGTGGTGGTGGTGG) [AS1411]
Cells respond? [1]: Yes | Cells respond? [2]: Yes | Cells respond? [3]: No | Cells respond? [4]: No | Cells respond? [5]: Yes | Cells respond? [6]: No | Cells respond? [7]: Yes | Cells respond? [8]: Yes | sensitivity of cells to AS1411 [9]: sensitive | Cells respond? ([9]; DU145, Cancer, prostate): Yes | stimulation of macropinocytosis compared with tAS1411 ([10]; 0, 5, 10, or 15 μM for 48 h): same response as tAS1411 | dextran uptake after treatment for shorter times ([10]; 1 h, 2 h, and 4 h): No changes in dextran uptake | Stimulate MP? ([10]; DU145, Cancer, prostate): Yes
